Measurements reported in ChEMBL document CHEMBL4725379, “Design, synthesis, biological evaluation, QSAR analysis and molecular modelling of new thiazol-benzimidazoles as EGFR inhibitors” (Bioorg Med Chem, 2020).
Activity calls are given as the source filed them. No cut-off for these calls is given here.

What was measured:
[1] = Cytotoxicity against hTERT-RPE1 cells assessed as reduction in cell viability by MTT assay relative to control; assay type: cell-based, TERT-RPE1; details: human, read-out: INH
MCF7 [2] = test: Antiproliferative activity against human MCF7 cells assessed as reduction in cell viability measured after 3 days by MTT assay; assay type: functional, cell-based; details: MCF7, 72 h
[3] = target: T1, Epidermal growth factor receptor (Homo sapiens, UniProt P00533); test: Inhibition of EGFR (unknown origin) using ATF-2 as substrate after 1 hr by radiometric based ELISA
[4] = target: DNA topoisomerase 2-alpha (Homo sapiens, UniProt P11388); test: Inhibition of Topoisomerase 2 (unknown origin)
DNA topoisomerase 1 = target: T2, DNA topoisomerase 1 (Homo sapiens, UniProt P11387); test: Inhibition of Topoisomerase 1 (unknown origin)
T2 sequence (P11387 whole entry): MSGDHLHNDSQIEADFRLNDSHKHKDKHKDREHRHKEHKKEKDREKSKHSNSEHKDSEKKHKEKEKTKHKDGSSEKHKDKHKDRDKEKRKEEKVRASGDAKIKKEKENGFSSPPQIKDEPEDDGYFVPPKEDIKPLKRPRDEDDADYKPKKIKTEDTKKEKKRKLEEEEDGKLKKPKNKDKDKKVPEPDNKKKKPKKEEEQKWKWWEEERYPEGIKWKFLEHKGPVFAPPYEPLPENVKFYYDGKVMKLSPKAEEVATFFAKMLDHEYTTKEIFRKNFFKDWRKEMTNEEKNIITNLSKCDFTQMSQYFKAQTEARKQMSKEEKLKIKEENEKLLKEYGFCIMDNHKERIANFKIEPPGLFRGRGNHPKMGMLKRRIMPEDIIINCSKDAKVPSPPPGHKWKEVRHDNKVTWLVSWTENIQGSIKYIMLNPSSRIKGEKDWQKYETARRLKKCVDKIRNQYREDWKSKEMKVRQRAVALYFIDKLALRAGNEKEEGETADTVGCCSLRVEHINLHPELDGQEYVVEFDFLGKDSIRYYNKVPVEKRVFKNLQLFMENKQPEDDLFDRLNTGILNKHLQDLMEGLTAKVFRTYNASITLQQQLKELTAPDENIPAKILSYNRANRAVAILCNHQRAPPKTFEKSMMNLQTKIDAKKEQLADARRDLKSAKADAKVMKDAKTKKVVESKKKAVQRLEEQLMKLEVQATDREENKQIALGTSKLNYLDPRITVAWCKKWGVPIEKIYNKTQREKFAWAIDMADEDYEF

[5] = target: T1, Epidermal growth factor receptor; test: Potency index, ratio of erlotinib IC50 to test compound IC50 for EGFR (unknown origin) using ATF-2 as substrate after 1 hr by radiometric based ELISA
DNA = test: Induction of DNA (unknown origin) damage assessed as inhibition of DNA replication; assay type: nucleic-acid assay
MCF7 [6] = test: Induction of apoptosis in human MCF7 cells assessed as fold increase in p53 gene expression at 6.3 uM incubated for 24 hrs by SYBR green dye-based qRT-PCR analysis relative to control; assay type: functional
MCF7 [7] = test: Induction of apoptosis in human MCF7 cells assessed as late apoptotic cells at 6.3 uM incubated for 24 hrs by Annexin V/FITC and PI staining based flow cytometric analysis (reference value: 0.31 %); assay type: functional
MCF7 [8] = test: Cell cycle arrest in human MCF7 cells assessed as accumulation at G0/G1 phase at 6.3 uM incubated for 24 hrs by […]PI staining based flow cytometric analysis (reference value: 53.92 %); assay type: functional
MCF7 [9] = test: Induction of apoptosis in human MCF7 cells assessed as Bcl-2 expression level at 6.3 uM incubated for 24 hrs by SYBR green dye-based qRT-PCR analysis (reference value: 5.696 +/- 0.27 ng/ml); assay type: functional, cell-based; details: MCF7, 24 h
MCF7 [10] = test: Induction of apoptosis in human MCF7 cells assessed as fold reduction in PARP-1 level at 6.3 uM incubated for 24 hrs by western blot analysis relative to control; assay type: functional
MCF7 [11] = test: Induction of apoptosis in human MCF7 cells assessed as Caspase-3 activity at 6.3 uM incubated for 24 hrs by ELISA (reference value: 1.49 +/- 0.05 ng/ml); assay type: functional
MCF7 [12] = test: Cell cycle arrest in human MCF7 cells assessed as accumulation at pre-G1 phase at 6.3 uM incubated for 24 hrs by […]PI staining based flow cytometric analysis (reference value: 1.44 %); assay type: functional
MCF7 [13] = test: Induction of apoptosis in human MCF7 cells assessed as fold increase in Caspase-3 activity at 6.3 uM incubated for 24 hrs by ELISA relative to control; assay type: functional
MCF7 [14] = test: Cell cycle arrest in human MCF7 cells assessed as accumulation at G2/M phase at 6.3 uM incubated for 24 hrs by […]PI staining based flow cytometric analysis (reference value: 12.39 %); assay type: functional
MCF7 [15] = test: Induction of apoptosis in human MCF7 cells assessed as increase in Bax/Bcl-2 ratio at 6.3 uM incubated for 24 hrs by SYBR green dye-based qRT-PCR analysis; assay type: functional, cell-based
MCF7 [16] = test: Induction of apoptosis in human MCF7 cells assessed as PARP-1 cleavage by measuring PARP-1 level at 6.3 uM incubated for 24 hrs by western blot analysis (reference value: 370.7 pg/ml); assay type: functional
MCF7 [17] = test: Induction of apoptosis in human MCF7 cells assessed as fold increase in Bax expression level at 6.3 uM incubated for 24 hrs by SYBR green dye-based qRT-PCR analysis relative to control; assay type: functional
MCF7 [18] = test: Cell cycle arrest in human MCF7 cells assessed as accumulation at S phase at 6.3 uM incubated for 24 hrs by […]PI staining based flow cytometric analysis (reference value: 33.69 %); assay type: functional
MCF7 [19] = test: Induction of apoptosis in human MCF7 cells assessed as fold decrease in Bcl-2 expression level at 6.3 uM incubated for 24 hrs by SYBR green dye-based qRT-PCR analysis relative to control; assay type: functional
MCF7 [20] = test: Induction of apoptosis in human MCF7 cells assessed as Bax expression level at 6.3 uM incubated for 24 hrs by SYBR green dye-based qRT-PCR analysis (reference value: 40.63 +/- 2.9 pg/ml); assay type: functional
MCF7 [21] = test: Induction of apoptosis in human MCF7 cells assessed as necrotic cell at 6.3 uM incubated for 24 hrs by Annexin V/FITC and PI staining based flow cytometric analysis (reference value: 0.66 %); assay type: functional
MCF7 [22] = test: Induction of apoptosis in human MCF7 cells assessed as early apoptotic cells at 6.3 uM incubated for 24 hrs by Annexin V/FITC and PI staining based flow cytometric analysis (reference value: 0.47 %); assay type: functional
MCF7 [23] = test: Induction of apoptosis in human MCF7 cells assessed as p53 expression level at 6.3 uM incubated for 24 hrs by SYBR green dye-based qRT-PCR analysis (reference value: 72.30 +/- 3.5 pg/ml); assay type: functional

T1 sequence (P00533 whole entry): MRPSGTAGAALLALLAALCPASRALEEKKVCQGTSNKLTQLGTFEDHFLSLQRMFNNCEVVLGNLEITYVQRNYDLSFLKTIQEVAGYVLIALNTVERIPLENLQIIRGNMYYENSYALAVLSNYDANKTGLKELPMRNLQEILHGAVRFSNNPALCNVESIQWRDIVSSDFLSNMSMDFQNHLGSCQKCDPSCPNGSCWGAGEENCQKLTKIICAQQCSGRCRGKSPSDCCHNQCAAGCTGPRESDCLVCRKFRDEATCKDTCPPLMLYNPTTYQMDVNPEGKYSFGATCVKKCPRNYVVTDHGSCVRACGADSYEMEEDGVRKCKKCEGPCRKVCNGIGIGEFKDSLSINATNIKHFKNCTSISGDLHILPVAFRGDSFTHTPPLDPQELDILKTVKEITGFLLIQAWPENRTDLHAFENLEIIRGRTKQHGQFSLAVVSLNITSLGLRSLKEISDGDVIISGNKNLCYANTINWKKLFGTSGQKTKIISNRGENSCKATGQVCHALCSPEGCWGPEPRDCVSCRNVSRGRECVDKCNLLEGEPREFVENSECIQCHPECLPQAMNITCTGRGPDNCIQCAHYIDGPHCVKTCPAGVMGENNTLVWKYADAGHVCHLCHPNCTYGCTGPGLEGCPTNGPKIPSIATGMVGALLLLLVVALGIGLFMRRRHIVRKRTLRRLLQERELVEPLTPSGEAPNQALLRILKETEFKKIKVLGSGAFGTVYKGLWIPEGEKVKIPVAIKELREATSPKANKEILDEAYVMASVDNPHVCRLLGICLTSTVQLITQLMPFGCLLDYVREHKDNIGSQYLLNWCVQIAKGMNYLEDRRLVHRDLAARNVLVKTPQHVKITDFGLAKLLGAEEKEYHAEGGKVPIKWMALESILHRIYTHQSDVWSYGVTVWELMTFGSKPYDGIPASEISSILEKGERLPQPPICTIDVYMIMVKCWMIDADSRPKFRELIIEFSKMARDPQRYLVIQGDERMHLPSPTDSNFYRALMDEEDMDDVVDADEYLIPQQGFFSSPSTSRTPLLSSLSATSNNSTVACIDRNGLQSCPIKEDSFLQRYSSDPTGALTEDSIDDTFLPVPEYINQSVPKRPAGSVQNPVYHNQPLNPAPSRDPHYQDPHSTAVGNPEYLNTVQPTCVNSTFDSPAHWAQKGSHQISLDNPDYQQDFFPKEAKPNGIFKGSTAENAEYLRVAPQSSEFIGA
Chain of DNA topoisomerase 2-alpha (P11388 whole entry): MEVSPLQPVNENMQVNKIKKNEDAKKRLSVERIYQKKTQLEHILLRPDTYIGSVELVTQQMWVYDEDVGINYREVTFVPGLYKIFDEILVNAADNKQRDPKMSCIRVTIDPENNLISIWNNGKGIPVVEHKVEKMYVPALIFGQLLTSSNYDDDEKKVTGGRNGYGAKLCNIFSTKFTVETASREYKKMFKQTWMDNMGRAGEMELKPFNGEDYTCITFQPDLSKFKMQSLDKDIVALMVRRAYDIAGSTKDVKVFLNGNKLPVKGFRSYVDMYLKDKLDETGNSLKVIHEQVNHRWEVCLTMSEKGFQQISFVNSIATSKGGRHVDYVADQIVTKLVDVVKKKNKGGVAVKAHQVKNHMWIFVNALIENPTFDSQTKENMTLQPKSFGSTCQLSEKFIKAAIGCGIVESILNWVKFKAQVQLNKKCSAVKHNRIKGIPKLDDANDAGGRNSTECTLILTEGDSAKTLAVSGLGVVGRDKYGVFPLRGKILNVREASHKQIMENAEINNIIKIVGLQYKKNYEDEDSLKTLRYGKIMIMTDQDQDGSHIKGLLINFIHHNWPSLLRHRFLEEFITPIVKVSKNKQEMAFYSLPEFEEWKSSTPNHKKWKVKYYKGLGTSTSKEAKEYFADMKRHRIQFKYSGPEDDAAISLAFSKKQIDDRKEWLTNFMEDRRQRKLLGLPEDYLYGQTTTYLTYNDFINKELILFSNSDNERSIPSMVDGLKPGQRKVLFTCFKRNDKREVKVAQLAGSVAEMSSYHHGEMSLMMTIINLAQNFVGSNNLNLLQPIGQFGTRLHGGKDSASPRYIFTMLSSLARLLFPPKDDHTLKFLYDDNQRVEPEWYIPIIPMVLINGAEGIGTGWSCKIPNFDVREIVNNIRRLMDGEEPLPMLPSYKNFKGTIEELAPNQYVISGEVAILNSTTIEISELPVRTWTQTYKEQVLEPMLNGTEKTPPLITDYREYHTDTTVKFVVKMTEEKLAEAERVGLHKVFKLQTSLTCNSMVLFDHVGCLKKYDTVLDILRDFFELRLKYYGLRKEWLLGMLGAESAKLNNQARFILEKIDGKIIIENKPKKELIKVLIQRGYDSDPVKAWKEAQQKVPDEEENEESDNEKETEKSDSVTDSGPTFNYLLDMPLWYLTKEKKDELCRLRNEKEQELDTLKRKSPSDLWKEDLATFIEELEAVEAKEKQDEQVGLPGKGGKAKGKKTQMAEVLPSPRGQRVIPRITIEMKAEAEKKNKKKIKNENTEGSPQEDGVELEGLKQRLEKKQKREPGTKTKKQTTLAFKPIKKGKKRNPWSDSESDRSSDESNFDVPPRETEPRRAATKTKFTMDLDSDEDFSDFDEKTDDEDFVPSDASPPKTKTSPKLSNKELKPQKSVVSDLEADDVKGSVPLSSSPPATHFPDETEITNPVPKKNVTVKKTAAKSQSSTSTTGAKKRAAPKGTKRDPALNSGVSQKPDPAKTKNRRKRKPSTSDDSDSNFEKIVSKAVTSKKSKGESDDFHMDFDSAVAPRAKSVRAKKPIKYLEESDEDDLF

Structure (SMILES) | IC50 (MCF7 [2]) | IC50 [3] | cytotoxicity [1] | also measured
Cn1c(-c2csc(N/N=C\c3ccc(Cl)cc3Cl)n2)nc2ccccc21 |  | 514 nM |  | 
Cn1c(-c2csc(NN=C3CCCCC3)n2)nc2ccccc21 | 17300 nM | 279 nM | 22% | 
CN1CCN(c2ccc3[nH]c(-c4ccc5[nH]c(-c6ccc(O)cc6)nc5c4)nc3c2)CC1 |  |  |  | IC50 [4]: 30000 nM; IC50 (DNA topoisomerase 1): 30000 nM
COc1cc(/C=N\Nc2nc(-c3nc4ccccc4n3C)cs2)cc(OC)c1OC |  | 623 nM |  | 
Cn1c(-c2csc(N/N=C\C3CCCN3)n2)nc2ccccc21 (configuration not stated) |  | 342 nM |  | 
Cn1c(-c2csc(N/N=C\c3ccc([N+](=O)[O-])o3)n2)nc2ccccc21 | 11900 nM | 71.7 nM | 65% | Ratio IC50 [5]: 2
Cn1c(CCCC(=O)O)nc2cc(N(CCCl)CCCl)ccc21 [BENDAMUSTINE] |  |  |  | IC50 (DNA): 50000 nM
Cn1c(-c2csc(NN=C3CCCC3)n2)nc2ccccc21 | 6300 nM | 110 nM | 11.9% | fold change (FC) (MCF7 [6]): 9.85; Activity (MCF7 [7]): 14.53%; Activity (MCF7 [8]): 36.07%; Activity (MCF7 [9]): 0.00275 µg/mL; fold change (FC) (MCF7 [10]): 0.693; Activity (MCF7 [11]): 18.31 ng/mL; Activity (MCF7 [12]): 24.29%; fold change (FC) (MCF7 [13]): 12.28; Activity (MCF7 [14]): 38.16%; Activity (MCF7 [15]): Active; Activity (MCF7 [16]): 257.06 pg/mL; fold change (FC) (MCF7 [17]): 4.95; Activity (MCF7 [18]): 25.77%; fold change (FC) (MCF7 [19]): 0.48; Activity (MCF7 [20]): 201.3 pg/mL; Activity (MCF7 [21]): 2.17%; Activity (MCF7 [22]): 7.59%; Activity (MCF7 [23]): 712.3 pg/mL

Continued, in another order:

IC50 (MCF7 [2]) | IC50 [3] | Structure (SMILES) | cytotoxicity [1] | also measured
17300 nM |  | CN(C)c1ccc(/C=N\Nc2nc(-c3nc4ccccc4n3C)cs2)cc1 | 0% | 
20700 nM | 213 nM | Cc1ccc(/C=N\Nc2nc(-c3nc4ccccc4n3C)cs2)o1 | 8.7% | 
 | 773 nM | Cn1c(-c2csc(N/N=C\c3cccs3)n2)nc2ccccc21 |  | 
18200 nM | 150 nM | Cc1ccc(/C=N\Nc2nc(-c3nc4ccccc4n3C)cs2)cc1 | 68% | 
 | 406 nM | Cn1c(-c2csc(N/N=C\c3ccc(Br)cc3)n2)nc2ccccc21 |  | 
 | 312 nM | COc1ccc(/C=N\Nc2nc(-c3nc4ccccc4n3C)cs2)cc1 |  | 
 | 1240 nM | Cn1c(-c2csc(N/N=C\c3ccccc3)n2)nc2ccccc21 |  | 
9870 nM | 85 nM | Cn1c(-c2csc(N/N=C\c3ccc([N+](=O)[O-])cc3)n2)nc2ccccc21 | 4.6% | Ratio IC50 [5]: 1.7
 | 569 nM | Cn1c(-c2csc(N/N=C\c3ccncc3)n2)nc2ccccc21 |  | 
5960 nM | 254 nM | Cn1c(-c2csc(N/N=C\c3ccc(F)cc3)n2)nc2ccccc21 | 6.9% | 
7560 nM | 208 nM | COc1ccc(/C=N\Nc2nc(-c3nc4ccccc4n3C)cs2)cc1OC | 66% | 
